Experimental findings from ChEMBL document CHEMBL5620371, “Transient receptor potential ankyrin 1 (TRPA1) modulators: Recent update and future perspective” (Eur J Med Chem, 2023) are described below.

For test [1], the target named is T1, Transient receptor potential cation channel subfamily A member 1 (Rattus norvegicus, UniProt Q6RI86). Description: Agonist activity at rat TRPA1 transfected in HEK293F cells assessed as increase in Ca2+ influx by FLIPR calcium assay. It counts as cell-based.
Test [2] deals with T2, Transient receptor potential cation channel subfamily V member 1 (Homo sapiens, UniProt Q8NER1). Briefly: Inhibition of TRPV1 (unknown origin).
T2 sequence (Q8NER1 whole entry): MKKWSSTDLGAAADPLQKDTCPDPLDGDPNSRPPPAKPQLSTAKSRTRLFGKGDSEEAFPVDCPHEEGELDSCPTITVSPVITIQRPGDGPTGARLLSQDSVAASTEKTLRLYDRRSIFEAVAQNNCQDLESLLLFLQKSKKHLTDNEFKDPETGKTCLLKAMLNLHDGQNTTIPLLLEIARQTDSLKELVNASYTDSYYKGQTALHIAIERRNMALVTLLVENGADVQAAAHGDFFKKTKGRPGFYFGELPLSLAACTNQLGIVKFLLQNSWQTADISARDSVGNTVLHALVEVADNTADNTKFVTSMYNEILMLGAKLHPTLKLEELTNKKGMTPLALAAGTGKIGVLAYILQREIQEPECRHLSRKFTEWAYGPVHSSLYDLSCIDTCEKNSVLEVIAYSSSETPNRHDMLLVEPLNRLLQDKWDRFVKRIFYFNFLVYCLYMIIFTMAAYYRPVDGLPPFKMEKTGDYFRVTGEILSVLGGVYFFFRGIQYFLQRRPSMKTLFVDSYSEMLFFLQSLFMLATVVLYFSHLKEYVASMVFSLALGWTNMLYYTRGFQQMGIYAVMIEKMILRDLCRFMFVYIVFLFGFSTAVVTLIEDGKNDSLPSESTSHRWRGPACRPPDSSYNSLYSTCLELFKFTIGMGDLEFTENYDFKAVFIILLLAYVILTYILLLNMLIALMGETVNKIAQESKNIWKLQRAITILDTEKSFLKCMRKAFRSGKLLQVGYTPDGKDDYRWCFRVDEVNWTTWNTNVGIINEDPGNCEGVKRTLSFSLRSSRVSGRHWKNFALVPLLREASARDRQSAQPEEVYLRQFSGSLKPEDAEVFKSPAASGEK
Test [3] addresses T3, Transient receptor potential cation channel subfamily A member 1 (Homo sapiens, UniProt O75762). Briefly: Antagonist activity at TRPA1 (unknown origin) expressed in HEK293T cells assessed as inhibition of agonist induced channel current by whole-cell patch clamp analysis. It counts as cell-based. For orientation: Patch clamp records ionic current or voltage across a cell membrane.

Test [4] has as its target T4, Transient receptor potential cation channel subfamily A member 1 (Mus musculus, UniProt Q8BLA8). Description: Agonist activity at full length mouse TRPA1 transfected in HEK293F cells assessed as increase in Ca2+ influx by FLIPR calcium assay. It counts as cell-based.
For test [5], the target named is T1, Transient receptor potential cation channel subfamily A member 1. Description: Agonist activity at rat recombinant TRPA1 expressed in HEK293 cells assessed as increase in intracellular calcium accumulation by Fluo4-AM based assay. It counts as cell-based.
Test [6] addresses T3, Transient receptor potential cation channel subfamily A member 1. Description: Agonist activity at TRPA1 (unknown origin).
Test [7] shares this target. Description: Antagonist activity at human recombinant TRPA1 transfected in HEK293T cells assessed as increase in Ca2+ influx by FLIPR calcium assay. It counts as cell-based.
For test [8] the target is unchanged. Briefly: Inhibition of TRPA1 (unknown origin).
The target of test [9] is T4, Transient receptor potential cation channel subfamily A member 1. Description: Antagonist activity at mouse TRPA1 expressed in HEK293F cells as increase in Ca2+ influx by FLIPR calcium assay. It counts as cell-based.
Test [10] concerns the target T2, Transient receptor potential cation channel subfamily V member 1. Briefly: Agonist activity at human recombinant TRPV1 over expressed in HEK293 cells assessed as increase in intracellular calcium level by measuring efficacy by Fluo4-AM based assay. It counts as cell-based. (Calcium assays in cells follow changes in intracellular calcium, usually with a dye or a luminescent sensor.)

T4 sequence (Q8BLA8 whole entry): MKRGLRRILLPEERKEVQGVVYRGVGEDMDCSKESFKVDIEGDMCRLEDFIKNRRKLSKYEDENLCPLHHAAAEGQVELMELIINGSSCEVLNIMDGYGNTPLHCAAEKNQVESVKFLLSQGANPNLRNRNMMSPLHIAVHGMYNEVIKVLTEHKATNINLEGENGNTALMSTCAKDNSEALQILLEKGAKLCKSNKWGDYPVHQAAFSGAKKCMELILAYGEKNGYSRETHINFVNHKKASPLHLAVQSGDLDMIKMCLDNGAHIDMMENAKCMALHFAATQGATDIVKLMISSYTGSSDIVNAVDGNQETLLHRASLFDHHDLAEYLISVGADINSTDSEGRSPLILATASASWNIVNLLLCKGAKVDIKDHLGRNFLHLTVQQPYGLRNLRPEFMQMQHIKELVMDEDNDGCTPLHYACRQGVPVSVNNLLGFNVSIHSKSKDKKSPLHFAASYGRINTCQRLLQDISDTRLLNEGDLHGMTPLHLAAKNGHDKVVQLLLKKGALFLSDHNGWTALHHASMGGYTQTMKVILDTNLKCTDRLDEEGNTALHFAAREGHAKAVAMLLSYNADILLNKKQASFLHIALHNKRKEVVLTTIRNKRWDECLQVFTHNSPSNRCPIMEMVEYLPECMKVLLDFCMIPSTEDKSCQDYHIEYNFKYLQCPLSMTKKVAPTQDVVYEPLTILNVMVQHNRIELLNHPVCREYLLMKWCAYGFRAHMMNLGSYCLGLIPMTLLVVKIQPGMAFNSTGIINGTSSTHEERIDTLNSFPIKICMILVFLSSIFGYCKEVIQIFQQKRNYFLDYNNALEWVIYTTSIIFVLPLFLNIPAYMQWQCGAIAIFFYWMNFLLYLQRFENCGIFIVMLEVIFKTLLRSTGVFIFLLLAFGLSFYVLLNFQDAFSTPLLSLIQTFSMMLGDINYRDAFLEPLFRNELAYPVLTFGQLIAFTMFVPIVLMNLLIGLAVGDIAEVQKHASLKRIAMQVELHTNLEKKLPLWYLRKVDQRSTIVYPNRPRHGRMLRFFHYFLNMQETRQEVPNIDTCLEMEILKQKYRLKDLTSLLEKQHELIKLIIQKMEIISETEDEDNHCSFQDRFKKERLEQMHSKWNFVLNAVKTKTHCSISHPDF
T3 sequence (O75762 whole entry): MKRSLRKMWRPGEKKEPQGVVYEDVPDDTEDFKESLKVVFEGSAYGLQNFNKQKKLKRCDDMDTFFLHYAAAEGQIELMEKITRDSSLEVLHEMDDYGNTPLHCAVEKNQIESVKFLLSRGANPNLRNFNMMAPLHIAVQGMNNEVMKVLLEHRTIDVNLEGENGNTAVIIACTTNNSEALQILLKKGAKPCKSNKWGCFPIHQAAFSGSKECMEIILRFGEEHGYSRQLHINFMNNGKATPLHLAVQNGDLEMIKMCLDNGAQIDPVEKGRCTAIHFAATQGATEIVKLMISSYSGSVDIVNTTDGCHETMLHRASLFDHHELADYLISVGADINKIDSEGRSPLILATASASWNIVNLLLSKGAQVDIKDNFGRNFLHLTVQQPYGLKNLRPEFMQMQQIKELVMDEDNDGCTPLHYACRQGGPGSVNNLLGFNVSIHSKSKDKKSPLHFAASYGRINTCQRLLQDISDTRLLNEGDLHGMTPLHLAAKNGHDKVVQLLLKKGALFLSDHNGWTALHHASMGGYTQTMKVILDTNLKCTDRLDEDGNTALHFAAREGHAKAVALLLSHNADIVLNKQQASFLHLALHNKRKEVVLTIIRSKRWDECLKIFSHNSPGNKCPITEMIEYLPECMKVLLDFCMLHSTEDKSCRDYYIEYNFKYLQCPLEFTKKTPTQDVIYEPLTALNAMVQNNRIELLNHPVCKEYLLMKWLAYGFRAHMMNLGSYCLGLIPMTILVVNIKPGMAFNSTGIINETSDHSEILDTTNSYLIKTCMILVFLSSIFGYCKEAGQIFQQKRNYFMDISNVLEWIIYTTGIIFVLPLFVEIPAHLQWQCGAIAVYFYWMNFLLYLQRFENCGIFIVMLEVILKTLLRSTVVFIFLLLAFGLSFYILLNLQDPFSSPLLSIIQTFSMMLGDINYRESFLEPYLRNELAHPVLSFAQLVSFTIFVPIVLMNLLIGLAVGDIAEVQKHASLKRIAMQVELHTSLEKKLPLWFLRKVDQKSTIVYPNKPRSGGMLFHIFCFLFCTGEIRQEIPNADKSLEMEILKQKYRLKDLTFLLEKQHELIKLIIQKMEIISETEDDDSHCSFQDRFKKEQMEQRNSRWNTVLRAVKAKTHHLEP
T1 sequence (Q6RI86 whole entry): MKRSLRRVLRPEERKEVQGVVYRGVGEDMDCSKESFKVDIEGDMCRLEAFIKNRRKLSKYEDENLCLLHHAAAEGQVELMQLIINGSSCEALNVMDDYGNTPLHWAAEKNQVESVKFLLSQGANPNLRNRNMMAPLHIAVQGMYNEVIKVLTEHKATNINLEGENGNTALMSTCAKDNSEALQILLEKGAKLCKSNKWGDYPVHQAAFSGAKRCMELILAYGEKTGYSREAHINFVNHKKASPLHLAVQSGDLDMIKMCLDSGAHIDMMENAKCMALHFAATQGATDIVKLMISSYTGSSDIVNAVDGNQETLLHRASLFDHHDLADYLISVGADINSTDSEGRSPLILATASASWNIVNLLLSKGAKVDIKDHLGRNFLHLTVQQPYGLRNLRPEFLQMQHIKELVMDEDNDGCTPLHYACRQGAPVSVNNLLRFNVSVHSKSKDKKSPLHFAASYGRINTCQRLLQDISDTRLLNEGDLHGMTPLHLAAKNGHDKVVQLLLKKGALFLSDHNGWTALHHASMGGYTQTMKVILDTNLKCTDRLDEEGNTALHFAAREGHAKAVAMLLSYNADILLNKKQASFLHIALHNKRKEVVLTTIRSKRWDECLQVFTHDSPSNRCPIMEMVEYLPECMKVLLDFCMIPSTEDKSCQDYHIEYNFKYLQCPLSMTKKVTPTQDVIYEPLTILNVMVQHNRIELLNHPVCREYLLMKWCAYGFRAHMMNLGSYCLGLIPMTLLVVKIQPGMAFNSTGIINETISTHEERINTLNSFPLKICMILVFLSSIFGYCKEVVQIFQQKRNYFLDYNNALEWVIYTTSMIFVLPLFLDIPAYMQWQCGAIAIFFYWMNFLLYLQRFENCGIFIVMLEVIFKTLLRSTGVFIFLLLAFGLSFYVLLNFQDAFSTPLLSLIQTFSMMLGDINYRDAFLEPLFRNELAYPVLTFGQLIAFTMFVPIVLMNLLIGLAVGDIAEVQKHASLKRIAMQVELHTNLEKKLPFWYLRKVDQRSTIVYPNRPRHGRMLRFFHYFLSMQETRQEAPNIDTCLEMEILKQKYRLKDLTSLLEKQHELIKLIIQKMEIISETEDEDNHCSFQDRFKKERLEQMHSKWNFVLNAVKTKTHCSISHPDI

What is called IC50 is the midpoint of a concentration-inhibition curve. As to `Cn1cnc2ncn(Cc3nc([C@@H]4CO[C@@H](c5ccc(F)cc5)C4)no3)c(=O)c21`, in [1], the IC50 worked out at 0.007 µM.

`O=C(CCc1ccccc1)CC(O)CCCCCCc1ccccc1` (stereo unspecified): the IC50 in [2] was greater than 10 µM.

One may read the EC50 as the concentration needed to bring the measured effect to its halfway point. Consider `C[n+]1cc2c3c(ccc2c2ccc4cc5c(cc4c21)OCO5)OCO3`, for which the 50% effective concentration (EC50) in test [3] amounted to 0.09 µM.

For `O=C(O)CCCCCCCCCO`, in test [4], the half-maximal effective concentration (EC50) worked out at 510 µM.

For `O=C(O)/C=C/CCCCCCCO`, the half-maximal effective concentration (EC50) in test [4] is 422 µM.

As for `CC(C)CN1C(=O)/C(=C/C(=O)O)c2cccc(F)c21`, the IC50 in test [5] came to 0.51 µM.

`CC(C)c1cc(CCC(=O)CC(O)Cc2ccccc2)cc(C(C)C)c1O` (stereo unspecified) came in with an IC50 in [2] greater than 50 µM.

Take `COCCCN(C(=O)CCl)c1nc(-c2ccc(OC)cc2)cs1`: the EC50 in test [6] came out at 0.00065 µM.

`O=NN1[C@@H]2c3ccccc3[C@H]1[C@@H](C(F)(F)F)C2C(F)(F)F` (stereo partly specified): the 50% effective concentration (EC50) in test [7] came out at 5.63 µM.

In test [8], `O=C1C[C@@H](c2ccc(O[C@@H]3O[C@H](CO)[C@@H](O)[C@H](O)[C@H]3O)cc2)Oc2cc(O)ccc21` [LIQUIRITIN] gave an IC50 of 16.2 µM.

In [2], `O=C(CCc1ccc2c(c1)OCO2)CC(O)CCCCCCc1ccccc1` (stereo unspecified) yielded an IC50 greater than 10 µM.

On to `CCC/C=C1\OC(=O)C2=C1CCC=C2` [LIGUSTILIDE], for which the EC50 in [9] came out at 44 µM.

Regarding `C[C@@H](N)[C@@H](O)C/C=C\C/C=C\C/C=C\C/C=C\C/C=C\C/C=C\CCCCCC[C@H](O)[C@@H](C)N` [LEUCETTAMOL A], the 50% effective concentration (EC50) in test [10] was 3.7 µM.

As to `CCC/C=C1\OC(=O)c2ccccc21` [Z-butylidenephthalide], the EC50 in test [4] is 539 µM.

With `O=C(CCc1ccccc1)CC(O)Cc1ccccc1` (stereo unspecified), the IC50 in test [8] was 4.5 µM; in test [2] it was greater than 50 µM.
